SMILES strings stand for the structures.

The test system of data set [1] is A/WSN/33. Kind of data set: microbe, parasite or virus in culture. Type of data set: cell-based, influenza A virus.
In data set [2] the test system is WSN-PB2-Nanoluc virus. The data set is described as follows: microbe, parasite or virus in culture. Format: cell-based. Conditions: Influenza A virus, HCT-116, read-out: IC50, Nanoluc levels.
Data set [3] relates to H1N1 A/WSN/1933 virus. Format: cell-based, influenza A virus.
For data set [4], the system named is H5N1 A/Vietnam/1203/2004 HaLo virus. Format: cell-based, influenza A virus. To be noted: 25 μM, MOI = 0.01, 24 h, A549 cells.
Data set [5] has as its system H3N2 A/Panama/1999. Type of data set: cell-based, influenza A virus.
For data set [6], the system named is HA-mediated membrane fusion. Format: cell-based, influenza A virus. Conditions: pH 5.
Data set [7] concerns A/WSN/33. Type of data set: cell-based, influenza A virus.
The test system of data set [8] is poly(A) RNA and GAPDH mRNA. Kind of data set: RNA-FISH and smRNA-FISH of cellular RNA in uninfected cells. Format: cell-based, human. To be noted: 1 μM.
The subject of data set [9] is influenza virus. Format: cell-based.
Data set [10] deals with A/WSN/33. Format: cell-based, influenza A virus. The source holds these as a separate data set.
In data set [11] the test system is H1N1 (A/California/07/2009). Type of data set: cell-based, influenza A virus.
The test system of data set [12] is H3N2 (A/Wyoming/03/2003). Format: cell-based, influenza A virus.
Data set [13] concerns A549 cells. To be noted: human.
Data set [14] has as its system WSN-PB2-Nanoluc virus. Format: cell-based, influenza A virus.

As a reminder, the IC50 is the concentration needed to halve the response being measured. As to `CCN(c1ccccc1C)S(=O)(=O)c1cc(Cl)ccc1Cl` [compound 1, 2,5-dichloro-N-ethyl-N-(o-tolyl)-benzenesulfonamide], the selectivity index in data set [1] was over 625. In addition, the IC50 in [2] stood at 0.0168 µM. Further, the “reduction of viral titers” value in [3] is given as “four”. For the same compound, the “reduction of viral titers” value in data set [4] is on record as “four”. Also, the “reduction of viral titers” value in data set [5] is “four”. Besides, the “inhibition of fusion (hemolysis)” value in data set [6] is “robust inhibition of fusion”. Further, in [7], the “viral M mRNA expression, compound added after infection” value is recorded as “robustly expressed”; the “viral M mRNA expression, compound added prior to infection” value is listed as “expressed at very low levels”; the “viral mRNA levels (HA, NS1, M1, M2) by qPCR” value is “reduced levels of viral mRNAs”; the “viral mRNA levels (M, HA, NS) by smRNA-FISH” value was “reduced influenza virus (A/WSN/33) mRNA levels”. The “effect on cellular bulk poly(A) RNA or GAPDH” value in [8] is listed as “did not have a significant effect”. The “viral mRNA levels in primary cells” value in [9] is recorded as “robustly decreased viral mRNA levels”. Moreover, in [10], the “antiviral activity when used shortly post-infection (western blot NP, M1)” value was “lack of antiviral activity” and the “viral protein levels (western blot)” value is listed as “reduced levels of influenza virus proteins”. Also, in [11], the “number of infected cells” value is given as “robustly reduced the number of cells infected”. Besides, the “number of infected cells” value in data set [12] was “slightly inhibited the number of infected cells”. In addition, the “Cytotoxicity (MTT) CC10” value in [13] is over 25 µM.
Regarding `CCN(c1ccc(Cl)cc1C)S(=O)(=O)c1cc(Cl)ccc1Cl` [compound 12, 2,5-Dichloro-N-(4-chloro-2-methylphenyl)-N-ethylbenzenesulfonamide], in data set [1], the “antiviral activity as described in SAR text” value is “generally more potent” and the selectivity index is reported as over 147. In [11], the “number of infected cells” value is reported as “robustly reduced the number of cells infected”. For the same compound, the “number of infected cells” value in data set [12] was “more effectively decreased infection”. Further, the “Cytotoxicity (MTT) CC10” value in data set [13] was over 5 µM.
For `CCN(c1ccc(F)cc1F)S(=O)(=O)c1cc(Cl)ccc1Cl` [compound 21, 2,5-Dichloro-N-(2,4-difluorophenyl)-N-ethylbenzenesulfonamide], in that order: “equipotent to compound 1”, over 96, “robustly reduced the number of cells infected”, “slightly inhibited the number of infected cells” and over 5 µM.
With `O=S(=O)(c1cc(Cl)ccc1Cl)N1CCc2cc(Cl)ccc21` [compound 49, 5-Chloro-1-((2,5-dichlorophenyl)sulfonyl)indoline], the “activity under the assay conditions” value in [14] is “inactive”.
On the same count and under the same terms, the same measure for `O=S(=O)(c1cc(Cl)ccc1Cl)N1CCCc2cc(Cl)ccc21` [compound 50, 6-Chloro-1-((2,5-dichlorophenyl)sulfonyl)-1,2,3,4-tetrahydroquinoline]: “inactive”; for `C#CCCC1(CCN(c2ccc(Cl)cc2C)S(=O)(=O)c2cc(Cl)ccc2Cl)N=N1` [compound 52, N-(2-(3-(But-3-yn-1-yl)-3H-diazirin-3-yl)ethyl)-2,5-dichloro-N-(4-chloro-2-methylphenyl)benzenesulfonamide]: “not active”; for `C#CCCC1(CCOC(=O)Cc2ccc(N(CC)S(=O)(=O)c3cc(Cl)ccc3Cl)cc2)N=N1` [compound 53, 2-(3-(But-3-yn-1-yl)-3H-diazirin-3-yl)ethyl 2-(4-((2,5-Dichloro-Nethylphenyl)sulfonamido)phenyl)acetate]: “not active”.
As for `C#CCN(c1cccc(N=[N+]=[N-])c1)S(=O)(=O)c1cc(Cl)ccc1Cl` [compound 54, N-(3-Azidophenyl)-2,5-dichloro-N-(prop-2-yn-1-yl)benzenesulfonamide], in data set [14], the “activity under the assay conditions” value is reported as “retained robust activity”.

For the origin of these results see article PMC8900595 (Journal of medicinal chemistry, 2021).
